# From PubChem BioAssay (NCI)
#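 Assay format: 96-well plates, 48-hour exposure. GI50 marks 50% less growth. The concentration for full growth arrest is given as TGI.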
# Experiments:
# Experiment in all cases: NCI anticancer screen, dose series, 48 h
# HCT-116 colon = test system: HCT-116 colon
# SF-539 CNS = test system: SF-539 CNS
# SN12C renal = test system: SN12C renal
# A549 NSCLC = test system: A549 NSCLC
# HL-60(TB) leukemia = test system: HL-60(TB) leukemia
# SW-620 colon = test system: SW-620 colon
# OVCAR-5 ovarian = test system: OVCAR-5 ovarian
# KM12 colon = test system: KM12 colon
# MDA-MB-231 breast = test system: MDA-MB-231 breast
# M14 melanoma = test system: M14 melanoma
SMILES,TGI (HCT-116 colon),TGI (SF-539 CNS),TGI (SN12C renal),TGI (A549 NSCLC),TGI (HL-60(TB) leukemia),TGI (SW-620 colon),TGI (OVCAR-5 ovarian),TGI (KM12 colon),TGI (MDA-MB-231 breast),TGI (M14 melanoma),GI50 (MDA-MB-231 breast)
COc1ccc(/C=c2\s/c(=C3/SC(=S)N(c4ccccc4)C3=O)n(-c3ccccc3)c2=O)cc1,> 100 µM,> 100 µM,> 100 µM,> 100 µM,> 100 µM,> 100 µM,> 100 µM,> 100 µM,> 100 µM,> 100 µM,
Cc1cc(S(=O)(=O)Nc2n[nH]c(-c3ccccn3)n2)c(S)cc1Cl,55.1 µM,54.3 µM,> 100 µM,41.9 µM,41.2 µM,54.2 µM,45.4 µM,> 100 µM,> 100 µM,44.5 µM,
CC(=O)OCC1OC(n2c(-c3ccccc3)c(N=Nc3ccccc3)c(C)c(C#N)c2=S)C(OC(C)=O)C(OC(C)=O)C1OC(C)=O (stereo unspecified),> 100 µM,> 100 µM,> 100 µM,> 100 µM,> 100 µM,> 100 µM,> 100 µM,> 100 µM,> 100 µM,> 100 µM,
Cc1cc2ncn(C3CCCCO3)c2cc1C (stereo unspecified),> 100 µM,> 100 µM,> 100 µM,> 100 µM,> 100 µM,> 100 µM,> 100 µM,> 100 µM,> 100 µM,> 100 µM,
CN(C)c1ccc(/C=C(\NC(=O)c2ccccc2)c2nn(C)c(=O)o2)cc1,> 100 µM,> 100 µM,> 100 µM,> 100 µM,> 100 µM,> 100 µM,> 100 µM,> 100 µM,> 100 µM,> 100 µM,
C/C=C(/C)C(=O)OC1CC(C)[C@H]2CC(=O)C(C)=C2CC1C(C)(C)OC(C)=O (stereo partly specified),40.7 µM,41 µM,> 100 µM,> 100 µM,49.8 µM,> 100 µM,> 100 µM,91.6 µM,> 100 µM,63.8 µM,
CN(C)CCCNC(=O)c1cc(NC(=O)c2cc(NC(=O)CCCn3c4ccccc4c4ccccc43)cn2C)cn1C,13.8 µM,62.6 µM,33.2 µM,> 67.7 µM,> 72.4 µM,42.8 µM,> 57.7 µM,43.9 µM,20.9 µM,12.3 µM,4.45 µM
COc1ccc(Nc2nc(N)c(C(=O)c3c[nH]c4ccccc34)s2)cc1,6.58 µM,> 36.9 µM,> 100 µM,> 61.3 µM,14 µM,> 100 µM,> 80.5 µM,26.1 µM,> 100 µM,16.4 µM,
COc1ccc(-c2c3c(n(C4OC(CO)C(O)C(O)C4O)c(=S)c2C#N)CCC3)cc1 (stereo unspecified),> 100 µM,> 100 µM,> 100 µM,> 100 µM,> 100 µM,> 100 µM,> 100 µM,> 100 µM,> 100 µM,> 100 µM,
COc1ccc(OC2OC(CO)C(OCc3ccccc3)C(OCc3ccccc3)C2OCc2ccccc2)cc1 (stereo unspecified),> 100 µM,> 100 µM,> 100 µM,> 100 µM,> 100 µM,> 100 µM,> 100 µM,> 100 µM,> 100 µM,> 100 µM,
COc1ccc2nc(/C(N)=C\C#N)ccc2c1,> 100 µM,> 100 µM,> 100 µM,> 100 µM,46.5 µM,> 100 µM,> 100 µM,> 100 µM,> 100 µM,> 100 µM,
COc1ccc(C2C3=C(COC3=O)Oc3cc4c(cc32)OCO4)c(OC)c1 (stereo unspecified),> 100 µM,43.6 µM,> 100 µM,> 100 µM,39.9 µM,> 100 µM,> 100 µM,> 100 µM,> 100 µM,> 100 µM,
CC1CCC2(NC1)OC1CC3C4CC=C5CC(OC6OC(CO)C(OC7OC(C)C(O)C(O)C7O)C(O)C6OC6OC(C)C(O)C(O)C6O)CCC5(C)C4CCC3(C)C1C2C (stereo unspecified),4.91 µM,8.75 µM,4.83 µM,9.59 µM,> 36 µM,22.3 µM,16.1 µM,9.17 µM,8.93 µM,6.39 µM,
Cc1cc(C)c(S(=O)(=O)N(CCCN)OCCCON(CCCN)S(=O)(=O)c2c(C)cc(C)cc2C)c(C)c1,3.17 µM,3.77 µM,13.6 µM,3.3 µM,5.64 µM,6.45 µM,5.86 µM,3.79 µM,3.31 µM,3.21 µM,
O=P(O)(O)c1ccccc1Oc1ccccc1,> 100 µM,> 100 µM,> 100 µM,> 100 µM,> 100 µM,> 100 µM,> 100 µM,> 100 µM,> 100 µM,> 100 µM,
CCC(CO)Nc1nc(NCc2ccccc2)c2ncn(C(C)C)c2n1 (stereo unspecified),> 90.2 µM,26.4 µM,> 100 µM,> 100 µM,> 70.5 µM,> 79 µM,> 69.1 µM,36.3 µM,> 94.5 µM,32.7 µM,
CCC(O)(Cc1ccc(OC)cc1)c1ccc(OC)cc1 (stereo unspecified),> 100 µM,> 100 µM,> 100 µM,> 100 µM,> 100 µM,> 100 µM,> 100 µM,> 100 µM,> 100 µM,> 100 µM,
O=C(O)c1cccc2cccc(-c3cccc4cccc(C(=O)O)c34)c12,> 100 µM,> 100 µM,> 100 µM,> 100 µM,> 100 µM,> 100 µM,> 100 µM,> 100 µM,> 100 µM,> 100 µM,
